Measurements: patent US20240261236A1, “METHODS OF USING NMDA RECEPTOR ANTAGONISTS” (Seelos Therapeutics, Inc., priority 2021, published 2024)

How the values were obtained:
[1] = tested on: adults with major depressive disorder (MDD) who are at imminent risk of suicide; experiment: S-STS CMCM clinician judgment, risk of suicide at this time; assay type: in vivo, human; settings: 90 mg IN+SOC; for S-STS CMCM score (range 0-9; risk of suicide at this time, FIGS. 20A-20B): 24 hours post-administration
Text: The S-STS CMCM (version 01/01/19) is a clinician-rated outcome measure which assesses SI/B on a standard 22-item scale, as well as multiple patient and clinician-rated items. The first 16 items are rated on a Likert-type scale ranging from “not at all” (0 units) to “extremely” (4 units), where select scoring (i.e., 4 specific items are scored based on the highest score on 2 of those items) yields a total score ranging from 0 units to 52 units. The final 6 items are used only when the patient misses a visit and is unable to complete the scale; if that missed visit is due to attempted or completed suicide, the possible maximum score is 100. The CMCM also yields 5 different single-item global assessments: 1) subject-rated likelihood of a suicide attempt; 2) subject-rated treatment needed; 3) clinician global severity of suicidal impulses, thoughts, and behaviors; 4) clinician judgment of suicide risk at this time and level of management needed for suicidality; and 5) clinician judgment of subject's likelihood of making a suicide attempt or of dying by suicide in the next 7 days.
The secondary endpoints are the change from baseline at 24 hours, as well as at Day 16, in the following: • (1) S-STS total score • (2) MADRS Total at Day 16 (only) • (3) Clinical Global Impression (CGI) of Severity for SI/B (CGIS-SI/B) and Change in SI/B (CGIC-SI/B) • (4) Patient Global Impression (PGI) of Severity for SI/B (PGIS-SI/B) and Change in SI/B (PGIC-SI/B • (5) S-STS Clinician-Rated Global Severity of Suicidal Impulses, Thoughts, and Behaviors • (6) S-STS Clinician judgment of subject's risk of a suicide attempt or death by suicide at this time • (7) S-STS Clinician judgment of subject's likelihood (risk) of making a suicide attempt or of dying by suicide in the next 7 days • (8) S-STS Subject-rated global severity of suicidal impulses, thoughts, and behavior • (9) S-STS Subject-rated treatment needed score • (10) MADRS item 10 response rate (response ≤3 units) • (11) MADRS Total response (total score ≥50% reduction from baseline) • (12) MADRS Total remission (total score ≤12 units)

[2] = tested on: adults with major depressive disorder (MDD) who are at imminent risk of suicide; experiment: MOAA/S sedation, Phase 2 Part 1
[3] = tested on: adults with major depressive disorder (MDD) who are at imminent risk of suicide; experiment: CADSS dissociation, Phase 2 Part 1
[4] = Leung and Baillie 1986; cited from earlier work
[5] = tested on: adults with major depressive disorder (MDD) who are at imminent risk of suicide; experiment: C-SSRS, Phase 2 Part 1; settings: 90 mg IN+SOC; for C-SSRS score (yes or no) for suicidal ideation: 24 hours post-administration, baseline yes

Which results are given for `CNC1(c2ccccc2Cl)CCCCC1=O` (racemic) [intranasal racemic ketamine, 1:1 mixture of the two enantiomers of ketamine: (R)-2-(2-chlorophenyl)-2-(methylamino)cyclohexanone and (S)-2-(2-chlorophenyl)-2-(methylamino)cyclohexanone]?
S-STS CMCM score (range 0-9; risk of suicide at this time, FIGS. 20A-20B) ([1]; Subject 1, baseline 7 units): 3 units; S-STS CMCM score (range 0-9; risk of suicide at this time) ([1]; Subject 1, Day 9): 2 units; S-STS CMCM score (range 0-9; risk of suicide at this time, FIGS. 20A-20B) ([1]; Subject 2, from 7 units): 3 units; S-STS CMCM score (range 0-9; risk of suicide at this time) ([1]; Subject 2, Day 9): zero; S-STS CMCM score (range 0-9; risk of suicide at this time) ([1]; Subjects 1 and 2, Day 8): 2 units; MOAA/S score ([2]; 90 mg IN+SOC, Subject 1, 15 minutes post-administration, pre-dose 5 units): 4 units; MOAA/S score ([2]; 90 mg IN+SOC, Subject 1, 30 minutes): 5 units; MOAA/S score ([2]; 90 mg IN+SOC, Subject 2, throughout the trial): 5 units; sedation ([2]; 90 mg IN+SOC, Subjects 1 and 2, in contrast to intranasal (S)-ketamine): little to no sedation; subjects with MOAA/S score of 5 units at all time-points ([2]; Day 1): 5 of 7 subjects; MOAA/S score (no one had a score below) ([2]; Day 1, 7 subjects): ≥ 4 units; CADSS score ([3]; 90 mg IN+SOC, Subject 1, all assessments, threshold for dissociation >4 units): zero; CADSS score ([3]; 90 mg IN+SOC, Subject 2, 40 minutes post-administration): 2 units; CADSS score ([3]; 90 mg IN+SOC, Subject 2, 1 hour post-administration): zero; clinically relevant dissociation ([3]; 90 mg IN+SOC, Subjects 1 and 2): neither subject exhibited clinically relevant dissociation; clinically meaningful sedation or dissociation ([3]; 90 mg IN+SOC, entire patient cohort to the Day 29/30 endpoint): no clinically meaningful sedation or dissociation; CADSS change from baseline (at 40 minutes) ([3]; Day 4 (after second dose)): 2.3; CADSS change from baseline (at 40 minutes) ([3]; Day 8 (after third dose)): 0.4; subjects with no dissociation (total CADSS score >4 units = dissociation) ([3]; Days 1 and 4): four; subjects reporting dissociation ([3]; after Day 4 (on Day 11 at 40 minutes), 7 subjects): 1 subject; CADSS change from baseline (at 40 minutes) ([3]; after first dose): 3.8; anesthetic activity [4]: anesthetic activity; C-SSRS score (yes or no) for suicidal ideation ([5]; Subject 1): no; C-SSRS score (yes or no) for suicidal ideation ([5]; Subject 2): no; C-SSRS scores for suicidal ideation and suicidal behavior ([5]; both subjects, remainder of the study): no
